We go through seven compounds from ChEMBL document CHEMBL1201862, “PubChem BioAssay data set” (2004).

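Five compound concentrations were applied to cells in 96-well plates for 48 hours; endpoints were derived by simple linear interpolation of the resulting dose-response curve. Abbreviation: GI50, concentration required for 50% inhibition of growth.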 Calls of active or inactive are those of the source. Cut-off read from the data, not from the text of the source: active = GI50 up to about 1.1 µM and inactive = higher.

Some test systems named below: 786-0; A549; ACHN; DU-145; HCT-116; HCT-15; HOP-92; HT-29; K562; MDA-MB-231; NCI-H522; NCI/ADR-RES; OVCAR-4; PC-3; SF-268; SF-295; SF-539; SK-OV-3; SR; UACC-257.
Common to all, as to assay: NCI tumour cell line growth inhibition, 48 h

Regarding `c1ccc2[nH]c3nc4ccccc4c-3cc2c1`, the GI50 in the assay with 786-0 was 0.0199 µM (active); in the assay on A549, 0.245 µM (active); in the assay on ACHN it was 0.113 µM (active); in the assay with DU-145, 1.26 µM (inactive); in the assay on HCT-116, < 0.0311 µM (active); in the assay with HCT-15, 0.229 µM. Besides, the GI50 is 7.26 µM (inactive) in the assay with HOP-92; < 0.0303 µM (active) in the assay on HT-29; 0.189 µM (active) in the assay on K562; 1.24 µM (inactive) with MDA-MB-231; 0.0824 µM (active) in the assay with NCI-H522; 1.28 µM (inactive) in the assay with NCI/ADR-RES. Moreover, the GI50 in the assay on OVCAR-4 was 1.03 µM (active); with PC-3, 0.232 µM (active); in the assay on SF-268 it was 0.598 µM (active); in the assay with SF-295, 0.5 µM (active); in the assay with SF-539, 0.367 µM (active); in the assay with SK-OV-3, 0.839 µM (active). Besides, the figures for the GI50 in the assay with SR and with UACC-257 were 0.0441 µM (active) and 0.637 µM (active), respectively.
In the case of `CN(C)c1ccc(C2CC(c3ccc4ccccc4c3O)=NN2)cc1` (stereo not given), the GI50 in the assay with 786-0 is 21.9 µM (inactive); in the assay with A549 it was 31 µM (inactive); in the assay on ACHN, 38.4 µM (inactive); in the assay on DU-145, 50.4 µM (inactive); with HCT-116, 31.7 µM (inactive); with HCT-15 it was 44 µM. Moreover, the GI50 in the assay with HOP-92 is 29.4 µM (inactive); in the assay with HT-29, 34.4 µM (inactive); in the assay with K562, 25.5 µM (inactive); with MDA-MB-231, 50 µM (inactive); in the assay on NCI-H522 it was 22.2 µM (inactive); in the assay with NCI/ADR-RES it was 30.3 µM (inactive). Moreover, the GI50 is 94.4 µM (inactive) with OVCAR-4; 32 µM (inactive) with PC-3; 32.5 µM (inactive) in the assay on SF-268; 31.6 µM (inactive) in the assay on SF-295; 24.5 µM (inactive) in the assay with SF-539; 48.5 µM (inactive) in the assay on SK-OV-3. In addition, the GI50 in the assay with SR was 14.1 µM (inactive); in the assay with UACC-257, 38.8 µM (inactive).
For the compound `CC(C)(C)[Si](C)(C)OCC1OC(n2ccc(=O)[nH]c2=O)C(O[Si](C)(C)C(C)(C)C)[C@]12O[C@@H]2CO` (stereo not given in full), the GI50 is 18.2 µM (inactive) in the assay on 786-0; 10.9 µM (inactive) in the assay with A549; 11.9 µM (inactive) in the assay with ACHN; 19.4 µM (inactive) with DU-145; 11.3 µM (inactive) in the assay with HCT-116; 11.9 µM with HCT-15. For the same compound, the GI50 was 15 µM (inactive) with HOP-92; 10.6 µM (inactive) in the assay on HT-29; 23.3 µM (inactive) in the assay with K562; 19.5 µM (inactive) with MDA-MB-231; 14.1 µM (inactive) in the assay on NCI-H522; 17.4 µM (inactive) in the assay with NCI/ADR-RES. For the same compound, the GI50 is 13.6 µM (inactive) in the assay with OVCAR-4; 4.58 µM (inactive) in the assay on PC-3; 19.4 µM (inactive) with SF-268; 10.3 µM (inactive) with SF-295; 21.5 µM (inactive) in the assay with SF-539; 15.6 µM (inactive) in the assay with SK-OV-3. Besides, the GI50 with SR is 3.61 µM (inactive); in the assay on UACC-257, 18.2 µM (inactive).
Take `CN(C)c1ccc(C(Cc2ccccc2)C2NC(=S)NC2=O)cc1` (stereo not given): the GI50 with 786-0 was > 100 µM (inactive); in the assay on A549 it was > 100 µM (inactive); in the assay with ACHN, > 100 µM (inactive); in the assay on DU-145 it was > 100 µM (inactive); in the assay on HCT-116, > 100 µM (inactive); in the assay on HCT-15, above 100 µM. In addition, the GI50 with HOP-92 is > 100 µM (inactive); with HT-29 it was > 83.6 µM (inactive); in the assay with K562, 31.1 µM (inactive); in the assay with MDA-MB-231, > 100 µM (inactive); in the assay on NCI-H522 it was > 100 µM (inactive); in the assay with NCI/ADR-RES it was > 100 µM (inactive). In addition, the GI50 is 28.4 µM (inactive) in the assay on OVCAR-4; > 100 µM (inactive) with PC-3; > 100 µM (inactive) with SF-268; > 95.7 µM (inactive) in the assay with SF-295; 47.8 µM (inactive) in the assay on SF-539; 76.9 µM (inactive) in the assay on SK-OV-3. Further, the figures for the GI50 in the assay on SR and with UACC-257 were 2.17 µM (inactive) and > 100 µM (inactive), respectively.
Take `C=CCC1CC(n2cc(C)c(=O)[nH]c2=O)OC1CO[Si](C)(C)C(C)(C)C` (stereo not given): the GI50 in the assay with 786-0 is 15.2 µM (inactive); in the assay with A549, 12.3 µM (inactive); with ACHN, 15.4 µM (inactive); with DU-145, 13.5 µM (inactive); in the assay on HCT-116 it was 11.7 µM (inactive); with HCT-15, 15.3 µM. The GI50 in the assay on HOP-92 is 15.8 µM (inactive); in the assay with HT-29, 15.9 µM (inactive); in the assay with K562 it was 0.163 µM (active); with MDA-MB-231, 13.7 µM (inactive); with NCI-H522 it was 10.4 µM (inactive); in the assay with NCI/ADR-RES, 15.1 µM (inactive). The GI50 was 12.1 µM (inactive) in the assay with OVCAR-4; 11.4 µM (inactive) in the assay with PC-3; 15.6 µM (inactive) in the assay on SF-268; 17.6 µM (inactive) with SF-295; 13.8 µM (inactive) in the assay with SF-539; 14 µM (inactive) in the assay on SK-OV-3. In addition, the GI50 in the assay with SR was 0.0925 µM (active); in the assay with UACC-257, 17.2 µM (inactive).
Turning to `C#C[C@]1(O)[C@@H](CO)O[C@@H](n2ccc(N)nc2=O)[C@@H]1O`, the GI50 with 786-0 is < 0.0325 µM (active); in the assay on A549, < 0.01 µM (active); in the assay with ACHN, < 0.01 µM (active); in the assay with DU-145 it was < 0.01 µM (active); in the assay with HCT-116, < 0.0435 µM (active); in the assay with HCT-15, below 0.01 µM. Further, the GI50 with HOP-92 was 0.11 µM (active); with HT-29, < 0.0149 µM (active); in the assay on K562, < 0.01 µM (active); in the assay on MDA-MB-231, 0.0908 µM (active); with NCI-H522 it was < 0.01 µM (active); with NCI/ADR-RES, < 0.0317 µM (active). Also, the GI50 in the assay with OVCAR-4 was 0.18 µM (active); with PC-3, 0.0352 µM (active); with SF-268, 0.019 µM (active); in the assay with SF-295, < 0.0334 µM (active); in the assay on SF-539 it was 0.111 µM (active); with SK-OV-3, 0.0791 µM (active). Also, the GI50 in the assay with SR is < 0.01 µM (active); with UACC-257, 0.111 µM (active).
Turning to `O=C(/C=C/c1ccccc1)CCN1CCOCC1`, the GI50 is 6.85 µM (inactive) in the assay with 786-0; 24.2 µM (inactive) in the assay on A549; 15.2 µM (inactive) with ACHN; 18.8 µM (inactive) with DU-145; 12.1 µM (inactive) in the assay on HCT-116; 8.57 µM with HCT-15. Further, the GI50 in the assay on HOP-92 is 16.8 µM (inactive); in the assay on HT-29 it was 13.6 µM (inactive); with K562, 2.15 µM (inactive); with MDA-MB-231, 16.6 µM (inactive); with NCI-H522 it was 3.87 µM (inactive); with NCI/ADR-RES, 21.6 µM (inactive). In addition, the GI50 was 20.9 µM (inactive) with OVCAR-4; 17.4 µM (inactive) with PC-3; 12 µM (inactive) in the assay with SF-268; 19 µM (inactive) in the assay on SF-295; 12.1 µM (inactive) with SF-539; 24.1 µM (inactive) with SK-OV-3. The figures for the GI50 in the assay on SR and with UACC-257 were 2.06 µM (inactive) and 12.2 µM (inactive), respectively.
